Key:
[1] = system: F18-positive E. coli strain 107/86; assay: Carbohydrate inhibition in the in vitro villous adhesion assay (bacteria pre-incubated with saccharide); type: cell-based, Escherichia coli; details: for Inhibition of F18+ E. coli adherence to porcine intestinal villi: Example 18, 1 mg saccharide in 100 μl PBS
Source text: (§1) The nature of the F18R on porcine small intestinal villous enterocytes was investigated using an in vitro villous adhesion inhibition assay (Cox, E., Houvenaghel, A., 1993. Vet. Microbiol. 34(1), 7-18; Verdonck, F., Cox, E., van Gog, K., Van der Stede, Y., Duchateau, L., Deprez, P., Goddeeris, B. M., 2002. Vaccine 20(23-24), 2995-3004). Briefly, a 20 cm intestinal segment was collected from the mid jejunum of a euthanized pig, rinsed three times with ice cold PBS, and fixed with Krebs-Henseleit buffer (160 mM, pH 7.4) containing 1% (v/v) formaldehyde for 30 min at 4° C. Thereafter, the villi were gently scraped from the mucosae with a glass slide and stored in Krebs-Henseleit buffer at 4° C. Treatment of villi with acetone, methanol, 1% Triton® X-100, 10 mM NaIO4 in 0.2M sodium acetate, pH 4.5, or 0.2M sodium acetate, pH 4.5, without NaIO4, respectively, was performed at room temperature on a rotating wheel in a volume of 500 μl during 1 h. Next, the villi were washed 6 times with Krebs-Henseleit buffer followed by addition of 4×10^8 bacteria of the F18 positive reference E. coli strain (107/86), or the F4ac-expressing E. coli strain GIS 26, to an average of 50 villi in a total volume of 500 μl PBS, supplemented with 1% (w/v) D-mannose in order to prevent adhesion mediated by type 1 pili. These mixtures were incubated at room temperature for 1 h while being gently shaken. Villi were examined by phase-contrast microscopy at a magnification of 600, and the number of bacteria adhering along 50 μm brush border was quantitatively evaluated by counting the number of adhering bacteria at 20 randomly selected places, after which the mean bacterial adhesion was calculated.
The F18-positive E. coli strain 107/86 (8×10^7 bacteria) was incubated with different concentrations (10 mg/ml, 1 mg/ml, […]) of blood group H type 1 pentasaccharide (Fucα2Galβ3GlcNAcβ3Galβ4Glc) or lacto-N-tetraose saccharide (Galβ3GlcNAcβ3Galβ4Glc) (Glycoseparations, Moscow, Russia) in a final volume of 100 μl PBS, for 1 h at room temperature, while being gently shaken. The mixtures were then added to the villi, and again incubated for 1 h at room temperature with gentle shaking. Thereafter, the villi were examined by phase-contrast microscopy at a magnification of 600, and the number of bacteria adhering along a […] brush border was quantitatively evaluated by counting the number of adhering bacteria at 20 randomly selected places, after which the mean bacterial adhesion was calculated. Villi of two different F18R-positive pigs were used, and the countings were performed in triplicate.
The F18-positive E. coli strain 107/86 (8×10^7 bacteria) was incubated with 1 mg of blood group H type 1 pentasaccharide (H5-1, Fucα2Galβ3GlcNAcβ3Galβ4Glc), blood group A type 1 hexasaccharide (A6-1, GalNAcα3(Fucα2)Galβ3GlcNAcβ3Galβ4Glc), blood group B type 1 hexasaccharide (B6-1, Galα3(Fucα2)Galβ3GlcNAcβ3Galβ4Glc) or lacto-N-tetraose saccharide (LNT, Galβ3GlcNAcβ3Galβ4Glc) (Elicityl, Grenoble, France) in a final volume of 100 μl PBS, for 1 h at room temperature, while being gently shaken. The mixtures were then added to the villi, and again incubated for 1 h at room temperature with gentle shaking. Thereafter, the villi were examined by phase-contrast microscopy, and adhering bacteria were quantified as described above. Villi of two different F18R-positive pigs were used, and the countings were performed in triplicate.
The mixtures were then added to the villi, and again incubated for 1 h at room temperature with gentle shaking. Thereafter, the villi were examined by phase-contrast microscopy, and adhering bacteria were quantified as described above. Villi of one F18R-positive pig was used, and the countings were performed in duplicate.

[2] = system: F18 positive reference E. coli strain (107/86); assay: In vitro villous adhesion assay after treatment of porcine villi with agents; type: cell-based, Escherichia coli; details: villi of four pigs treated 1 h at room temperature; 1% Triton X-100; 10 mM NaIO4 in 0.2M sodium acetate pH 4.5
Source text: as §1
(§2) To examine the character of the F18R, intestinal villi isolated from four pigs were treated with different agents that affect lipids or carbohydrates on the enterocyte cell membrane. Treatment was followed by assessment of adhesion of F18-fimbriated E. coli to the villus epithelium.

[3] = system: F4ac-expressing E. coli strain GIS 26; assay: In vitro villous adhesion assay after treatment of porcine villi with agents (control strain); type: cell-based, Escherichia coli; details: villi treated 1 h at room temperature; 1% Triton X-100; 10 mM NaIO4 in 0.2M sodium acetate pH 4.5
Source text: as §1, §2

[4] = system: recombinant F18 fimbriae-expressing Escherichia coli (pIH120); assay: Chromatogram binding assay: 35S-labelled F18 fimbriae-expressing E. coli to glycosphingolipids on thin-layer chromatograms; details: for Binding of F18-fimbriated E. coli (in words): chromatogram binding assay, F18-expressing strain HB101(pIH120); for Detection limit of binding of F18-fimbriated E. coli: dilutions of glycosphingolipids on thin-layer chromatograms
Protocol: Recombinant E. coli strains expressing whole F18 fimbriae (HB101(pIH120), or F18 fimbriae with deletion of the FedF adhesive subunit (HB101(pIH126)) (Imberechts et al., 1992; 1996), were grown on Iso Sensitest agar plates (Oxoid, Basingstoke, Hampshire, England) supplemented with ampicillin (100 μg/ml) at 37° C. over night. For metabolic labeling, the culture plates were supplemented with 10 μl ^35S-methionine (400 μCi; Amersham Pharmacia Biotech). Bacteria were harvested, washed three times in PBS, and resuspended in PBS containing 2% (w/v) bovine serum albumin, 0.1% (w/v) NaN3 and 0.1% (w/v) Tween 20 (BSA/PBS/TWEEN) to a bacterial density of 1×10^8 colony forming units/ml.
Aluminium- or glass-backed silica gel 60 high performance thin-layer chromatography plates (Merck, Darmstadt, Germany) were used for thin-layer chromatography, and eluted with chloroform/methanol/water (60:35:8, by volume) as solvent system. The different glycosphingolipids were applied to the plates in quantities of 0.002-4 μg of pure glycosphingolipids and 40 μg of glycosphingolipid mixtures. Chemical detection was done with anisaldehyde (Waldi D, 1962. Sprühreagentien für die dünnschicht-chromatographie, p. 496-515. In Stahl, E. (ed.), Dünnschicht-Chromatographie. Springer-Verlag, Berlin).
Binding of radiolabelled bacteria to glycosphingolipids on thin-layer chromatograms was done as described previously (Hansson G C, Karlsson K-A, Larson G, Strömberg N, Thurin J, 1985. Anal. Biochem. 146:158-163). Dried chromatograms were dipped in diethylether/n-hexane (1:5 v/v) containing 0.5% (w/v) polyisobutylmethacrylate for 1 min, dried, and then blocked with BSA/PBS/TWEEN for 2 h at room temperature. Thereafter, the plates were incubated with ^35S-labeled bacteria (1-5×10^6 cpm/ml) diluted in BSA/PBS/TWEEN for another 2 h at room temperature. After washing six times with PBS, and drying, the thin-layer plates were autoradiographed for 12 h using XAR-5 x-ray films (Eastman Kodak, Rochester, N.Y.).

[5] = 1 h pre-incubation, villi of two pigs
[6] = Example 17, 1 mg/ml saccharide, 100 μl PBS, 1 h pre-incubation, villi of two pigs
[7] = Example 17, 10 mg/ml saccharide, 100 μl PBS, 1 h pre-incubation, villi of two pigs
[8] = Example 17, 100 mg/ml saccharide (so in the source), 100 μl PBS, 1 h pre-incubation, villi of two pigs

Compound: CC(=O)NC1C(OC2C(O)C(CO)OC(OC3C(O)C(CO)OC(OC4C(O)C(CO)OC(OC5C(CO)OC(O)C(O)C5O)C4O)C3NC(C)=O)C2OC2OC(C)C(O)C(O)C2O)OC(CO)C(O)C1O (centres unmarked) [A6-1, GalNAcα3(Fucα2)Galβ3GlcNAcβ3Galβ4Glc]
- Inhibition of F18+ E. coli adherence to porcine intestinal villi [1, 5]: 72.9%

Compound: CC(=O)NC1C(OC2C(O)C(CO)OC(OC3C(CO)OC(O)C(O)C3O)C2O)OC(CO)C(O)C1OC1OC(CO)C(O)C(OC2OC(CO)C(O)C(O)C2O)C1OC1OC(C)C(O)C(O)C1O (centres unmarked) [B6-1, Galα3(Fucα2)Galβ3GlcNAcβ3Galβ4Glc]
- Inhibition of F18+ E. coli adherence to porcine intestinal villi [1, 5]: 86.8%

Compound: CC(=O)N[C@H]1[C@H](O[C@H]2[C@@H](O)[C@@H](CO)O[C@@H](O[C@H]3[C@H](O)[C@@H](O)C(O)O[C@@H]3CO)[C@@H]2O)O[C@H](CO)[C@@H](O)[C@@H]1O[C@@H]1O[C@H](CO)[C@H](O)[C@H](O)[C@H]1O[C@@H]1O[C@@H](C)[C@@H](O)[C@@H](O)[C@@H]1O (some centres unmarked) [H5-1, Fucα2Galβ3GlcNAcβ3Galβ4Glc]
- Reduction (inhibition) of adherence of F18-positive E. coli to porcine intestinal villi [1, 6]: 68.5%
- Reduction (inhibition) of adherence of F18-positive E. coli to porcine intestinal villi [1, 7]: 87.1%
- Inhibition of adherence of F18-positive E. coli to porcine intestinal villi [1, 8]: 1.4%
- Inhibition of F18+ E. coli adherence to porcine intestinal villi [1, 5]: 52.4%

Compound: CC(=O)N[C@H]1[C@H](O[C@H]2[C@@H](O)[C@@H](CO)O[C@@H](O[C@H]3[C@H](O)[C@@H](O)C(O)O[C@@H]3CO)[C@@H]2O)O[C@H](CO)[C@@H](O)[C@@H]1O[C@@H]1O[C@H](CO)[C@H](O)[C@H](O)[C@H]1O (some centres unmarked) [LNT, Galβ3GlcNAcβ3Galβ4Glc, reference compound]
- Reduction (inhibition) of adherence of F18-positive E. coli to porcine intestinal villi [1, 6]: 5.8%
- Reduction (inhibition) of adherence of F18-positive E. coli to porcine intestinal villi [1, 7]: 5.8%
- Inhibition of adherence of F18-positive E. coli to porcine intestinal villi [1, 8]: 4.2%
- Inhibition of F18+ E. coli adherence to porcine intestinal villi [1, 5]: 2.8%

Compound: [Na+].[O-][I+3]([O-])([O-])[O-] [NaIO4]
- Adhesion of F18-fimbriated E. coli to porcine intestinal villi after treatment of the villi [2]: completely abolished
- Adhesion of control F4ac-fimbriated E. coli strain to porcine intestinal villi after treatment of the villi [3]: abolished

Compound: CC(C)=O [acetone]
- Adhesion of F18-fimbriated E. coli to porcine intestinal villi after treatment of the villi [2]: completely abolished
- Adhesion of control F4ac-fimbriated E. coli strain to porcine intestinal villi after treatment of the villi [3]: no or only little effect

Compound: C[C@@H]1O[C@@H](O[C@H]2C(O)O[C@H](CO)[C@H](O)[C@@H]2O)[C@@H](O)[C@H](O)[C@@H]1O (some centres unmarked) [blood group H disaccharide, Fucα2Gal]
- Inhibition of adherence of F18-positive E. coli to porcine intestinal villi ([1]; Example 21, 0.2 mg in 100 μl PBS, villi of one pig): 5.1%
- Reduction of adherence of F18-positive E. coli to porcine intestinal villi ([1]; Example 21, 1 mg in 100 μl PBS, villi of one pig): 83.7%

Compound: Fucα2Galβ3(Fucα4)GlcNAcβ3Galβ4Glcβ1Cer [No. 22, reference compound]
- Binding of F18-fimbriated E. coli (in words) [4]: not recognized

Compound: Fucα2Galβ3GalNAcβ4Galβ4Glcβ1Cer [No. 11, reference compound]
- Binding of F18-fimbriated E. coli (in words) [4]: absence of binding

Compound: Fucα2Galβ3GlcNAcβ3Galβ4Glcβ1Cer [No. 23]
- Binding of F18-fimbriated E. coli (in words) ([4]; listed as H type 1 pentaglycosylceramide): bound
- Detection limit of binding of F18-fimbriated E. coli [4]: 2 µg

Compound: Fucα2Galβ3GlcNAcβ3Galβ4Glcβ1Cer [O-I]
- Binding of F18-fimbriated E. coli (in words) [4]: F18 fimbriae-binding

Compound: Fucα2Galβ4GlcNAcβ3Galβ4Glcβ1Cer [No. 14, reference compound]
- Binding of F18-fimbriated E. coli (in words) [4]: no type 2 core counterparts of these compounds were recognized

Compound: GalNAcα3(Fucα2)Galβ3(Fucα4)GlcNAcβ3Galβ4Glcβ1Cer [No. 26]
- Binding of F18-fimbriated E. coli (in words) [4]: bound
- Detection limit of binding of F18-fimbriated E. coli [4]: 0.8 µg

Compound: GalNAcα3(Fucα2)Galβ3GalNAcβ3Galα4Galβ4Glcβ1Cer [No. 32]
- Detection limit of binding of F18-fimbriated E. coli [4]: approximately 0.8 μg

Compound: GalNAcα3(Fucα2)Galβ3GlcNAcβ3Galβ4Glcβ1Cer [A-I]
- Binding of F18-fimbriated E. coli (in words) [4]: F18-fimbriated E. coli binding

Compound: GalNAcα3(Fucα2)Galβ3GlcNAcβ3Galβ4Glcβ1Cer [No. 25]
- Binding of F18-fimbriated E. coli (in words) ([4]; listed as A type 1 hexaglycosylceramide): bound
- Detection limit of binding of F18-fimbriated E. coli [4]: approximately 0.08 μg

Compound: GalNAcα3(Fucα2)Galβ4(Fucα3)GlcNAcβ3Galβ4Glcβ1Cer [No. 19, reference compound]
- Binding of F18-fimbriated E. coli (in words) [4]: no type 2 core counterparts of these compounds were recognized

Compound: GalNAcα3(Fucα2)Galβ4GlcNAcβ3Galβ4Glcβ1Cer [No. 17, reference compound]
- Binding of F18-fimbriated E. coli (in words) [4]: no type 2 core counterparts of these compounds were recognized

Compound: Galα3(Fucα2)Galβ3(Fucα4)GlcNAcβ3Galβ4Glcβ1Cer [No. 27]
- Binding of F18-fimbriated E. coli (in words) [4]: bound

Compound: Galα3(Fucα2)Galβ3GlcNAcβ3Galβ4Glcβ1Cer [No. 24]
- Binding of F18-fimbriated E. coli (in words) [4]: bound
- Detection limit of binding of F18-fimbriated E. coli [4]: approximately 0.08 μg

Compound: Galα3(Fucα2)Galβ4GlcNAcβ3Galβ4Glcβ1Cer [No. 16, reference compound]
- Binding of F18-fimbriated E. coli (in words) [4]: no type 2 core counterparts of these compounds were recognized

Compound: Galβ3GlcNAcβ3Galβ4Glcβ1Cer [No. 20, reference compound]
- Binding of F18-fimbriated E. coli (in words) [4]: devoid of FedF-mediated binding activity
